Measurements from patent EP2837626A1, “Indolinone derivatives as GRK5 modulators” (Max-Planck-Gesellschaft zur Förderung der Wissenschaften …, priority 2013, dated 2015).

Legend:
[1] = biological target: T1, full length GRK5 (Homo sapiens, UniProt P34947); experiment: IC50 determination of compounds inhibiting GRK5 by ADP Glo Kinase Assay technology (Promega); assay type: biochemical; conditions: 20 nM GRK5, 18.7 µM ATP, 10 µM casein, 12 concentrations, triplicates, read-out: GRK5 IC50
T1 construct: 6/2 fold concentrated full length GRK5 (Millipore, #14-714) in reaction buffer is added to each well; purchased Millipore 14-714
T1 sequence (P34947 whole entry): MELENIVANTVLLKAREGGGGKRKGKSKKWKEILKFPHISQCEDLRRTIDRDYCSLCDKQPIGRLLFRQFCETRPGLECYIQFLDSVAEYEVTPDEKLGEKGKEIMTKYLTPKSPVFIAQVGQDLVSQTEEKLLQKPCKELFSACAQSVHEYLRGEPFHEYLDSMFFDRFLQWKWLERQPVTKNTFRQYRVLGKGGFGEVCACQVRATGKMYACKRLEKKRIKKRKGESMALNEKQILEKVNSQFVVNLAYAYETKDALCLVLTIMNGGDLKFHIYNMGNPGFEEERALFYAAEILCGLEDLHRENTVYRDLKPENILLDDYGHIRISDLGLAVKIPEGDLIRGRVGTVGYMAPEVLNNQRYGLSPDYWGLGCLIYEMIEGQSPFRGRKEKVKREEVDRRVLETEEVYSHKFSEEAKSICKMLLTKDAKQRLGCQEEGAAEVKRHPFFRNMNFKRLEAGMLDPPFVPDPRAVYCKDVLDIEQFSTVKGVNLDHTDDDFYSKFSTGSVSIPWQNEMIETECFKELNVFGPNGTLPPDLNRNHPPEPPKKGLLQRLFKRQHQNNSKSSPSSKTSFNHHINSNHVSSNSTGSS

[2] = biological target: T2, GRK5 (Homo sapiens, UniProt P34947); experiment: IC50 determination of compounds inhibiting GRK5 by Millipore KinaseProfiler (radiometric filtration binding assay); assay type: biochemical; conditions: 2 mg/mL casein, 40 minutes at room temperature
T2 construct: purchased Millipore
T2 sequence (P34947 whole entry): as above
Method: IC50 values are determined by a radiometric based filtration binding assay, namely Millipore KinaseProfiler™. GRK5 is incubated with 8 mM MOPS pH 7.0, 0.2 mM EDTA, 2 mg/mL casein, 10 mM MgAcetate and […] (specific activity approx. 500 cpm/pmol, concentration as required). The reaction is initiated by the addition of the MgATP mix. After incubation for 40 minutes at room temperature, the reaction is stopped by the addition of 3 % phosphoric acid solution. 10 µL of the reaction is then spotted onto a P30 filtermat and washed three times for 5 minutes in 75 mM phosphoric acid and once in methanol prior to drying and scintillation counting.

SMILES	IC50 [1]	IC50 [2]
Cc1ccc([C@@H](C)NC(=O)c2ccc3c(c2)/C(=C/Nc2ccc(CN4CCCCC4)cc2)C(=O)N3)cc1 [Compound 72, (3Z)-N-[(1R)-1-(4-methylphenyl)ethyl]-2-oxo-3-({[4-(piperidin-1-ylmethyl)phenyl]amino}methylene)indoline-5-carboxamide]	< 5 µM	< 5 µM
Cc1[nH]c(/C=C2\C(=O)Nc3ccc(C(=O)N[C@@H]4CCc5ccccc54)cc32)c(C)c1C(=O)N1CCC[C@@H]1CN1CCCC1 [Compound 30, (3Z)-N-[(1R)-2,3-dihydro-1H-inden-1-yl]-3-[(3,5-dimethyl-4-{[(2R)-2-(pyrrolidin-1-ylmethyl)pyrrolidin-1-yl]carbonyl}-1H-pyrrol-2-yl)methylene]-2-oxoindoline-5-carboxamide]	5 to 20 µM	5 to 20 µM
Cc1[nH]c(/C=C2\C(=O)Nc3ccc(C(=O)N[C@@H](C)c4ccc(F)cc4)cc32)c(C)c1C(=O)N1CCCCC1 [Compound 64, (3Z)-3-{[3,5-dimethyl-4-(piperidin-1-ylcarbonyl)-1H-pyrrol-2-yl]methylene}-N-[(1S)-1-(4-fluorophenyl)ethyl]-2-oxoindoline-5-carboxamide]	> 30 µM	> 30 µM
Cc1[nH]c(/C=C2\C(=O)Nc3ccc(C(=O)N[C@H](C)c4cccc(Cl)c4)cc32)c(C)c1C(=O)N1CCCCC1 [Compound 55, (3Z)-N-[(1R)-1-(3-chlorophenyl)ethyl]-3-{[3,5-dimethyl-4-(piperidin-1-ylcarbonyl)-1H-pyrrol-2-yl]methylene}-2-oxoindoline-5-carboxamide]	< 5 µM	< 5 µM
CC[C@H](NC(=O)c1ccc2c(c1)/C(=C/c1[nH]c(C)c(C(=O)N3CCCCC3)c1C)C(=O)N2)c1ccccc1 [Compound 57, (3Z)-3-{[3,5-dimethyl-4-(piperidin-1-ylcarbonyl)-1H-pyrrol-2-yl]methylene}-2-oxo-N-[(1S)-1-phenylpropyl]indoline-5-carboxamide]	> 30 µM	> 30 µM
CC[C@@H](NC(=O)c1ccc2c(c1)/C(=C/c1[nH]c(C)c(C(=O)N3CCC[C@H]3CN3CCCC3)c1C)C(=O)N2)c1ccccc1 [Compound 46, (3Z)-3-[(3,5-dimethyl-4-{[(2S)-2-(pyrrolidin-1-ylmethyl)pyrrolidin-1-yl]carbonyl}-1H-pyrrol-2-yl)methylene]-2-oxo-N-[(1R)-1-phenylpropyl]indoline-5-carboxamide]	< 5 µM	< 5 µM
Cc1[nH]c(/C=C2\C(=O)Nc3ccc(C(=O)N[C@@H](C)c4cccc(Cl)c4)cc32)c(C)c1C(=O)N1CCCCC1 [Compound 56, (3Z)-N-[(1S)-1-(3-chlorophenyl)ethyl]-3-{[3,5-dimethyl-4-(piperidin-1-ylcarbonyl)-1H-pyrrol-2-yl]methylene}-2-oxoindoline-5-carboxamide]	> 30 µM	> 30 µM
C[C@@H](NC(=O)c1ccc2c(c1)/C(=C/Nc1ccc(CN3CCCCC3)cc1)C(=O)N2)c1ccc(Cl)cc1 [Compound 73, (3Z)-N-[(1R)-1-(4-chlorophenyl)ethyl]-2-oxo-3-({[4-(piperidin-1-ylmethyl)phenyl]amino}methylene)indoline-5-carboxamide]	< 5 µM	< 5 µM
CC[C@H](NC(=O)c1ccc2c(c1)/C(=C/c1[nH]c(C)c(C(=O)NCCN(CC)CC)c1C)C(=O)N2)c1ccccc1 [Compound 62, (3Z)-3-[(4-{[2-(diethylamino)ethyl]carbamoyl}-3,5-dimethyl-1H-pyrrol-2-yl)methylene]-2-oxo-N-[(1S)-1-phenylpropyl]indoline-5-carboxamide]	> 30 µM	> 30 µM
CC[C@@H](NC(=O)c1ccc2c(c1)/C(=C/c1[nH]c(C)c(C(=O)N3CCC(N4CCN(C)CC4)CC3)c1C)C(=O)N2)c1ccccc1 [Compound 53, (3Z)-3-[(3,5-dimethyl-4-{[4-(4-methylpiperazin-1-yl)piperidin-1-yl]carbonyl}-1H-pyrrol-2-yl)methylene]-2-oxo-N-[(1R)-1-phenylpropyl]indoline-5-carboxamide]	5 to 20 µM	< 5 µM
CC[C@H](NC(=O)c1ccc2c(c1)/C(=C/c1[nH]c(C)c(C(=O)N3CCC[C@H]3CN3CCCC3)c1C)C(=O)N2)c1ccccc1 [Compound 47, (3Z)-3-[(3,5-dimethyl-4-{[(2S)-2-(pyrrolidin-1-ylmethyl)pyrrolidin-1-yl]carbonyl}-1H-pyrrol-2-yl)methylene]-2-oxo-N-[(1S)-1-phenylpropyl]indoline-5-carboxamide]	5 to 20 µM	5 to 20 µM
CC[C@H](NC(=O)c1ccc2c(c1)/C(=C/c1[nH]c(C)c(C(=O)N3CCC(N4CCN(C)CC4)CC3)c1C)C(=O)N2)c1ccccc1 [Compound 52, (3Z)3-[(3,5-dimethyl-4-{[4-(4-methylpiperazin-1-yl)piperidin-1-yl]carbonyl}-1H-pyrrol-2-yl)methylene]-2-oxo-N-[(1S)-1-phenylpropyl]indoline-5-carboxamide]	> 30 µM	> 30 µM
COc1ccc([C@H](C)NC(=O)c2ccc3c(c2)/C(=C/c2[nH]c(C)c(C(=O)N4CCCCC4)c2C)C(=O)N3)cc1 [Compound 65, (3Z)-3-{[3,5-dimethyl-4-(piperidin-1-ylcarbonyl)-1H-pyrrol-2-yl]methylene}-N-[(1S)-1-(4-methoxyphenyl)ethyl]-2-oxoindoline-5-carboxamide]	< 5 µM	> 30 µM
C[C@@H](c1ccccc1)N(C)C(=O)c1ccc2c(c1)/C(=C/Nc1ccc(CN3CCCCC3)cc1)C(=O)N2 [Compound 71, (3Z)-N-methyl-2-oxo-N-[(1S)-1-phenylethyl]-3-({[4-(piperidin-1-ylmethyl)phenyl]amino}methylene)indoline-5-carboxamide]	< 5 µM	< 5 µM
Cc1[nH]c(/C=C2\C(=O)Nc3ccc(C(=O)N[C@@H](C)c4ccccc4)cc32)c(C)c1C(=O)N1CCCCC1 [Compound 54, (3Z)-3-{[3,5-dimethyl-4-(piperidin-1-ylcarbonyl)-1H-pyrrol-2-yl]methylene}-2-oxo-N-[(1S)-1-phenylethyl]indoline-5-carboxamide]	> 30 µM	> 30 µM
CC[C@@H](NC(=O)c1ccc2c(c1)/C(=C/c1[nH]c(C)c(C(=O)N3CCCCC3)c1C)C(=O)N2)c1ccccc1 [Compound 63, (3Z)-3-{[3,5-dimethyl-4-(piperidin-1-ylcarbonyl)-1H-pyrrol-2-yl]methylene}-2-oxo-N-[(1R)-1-phenylpropyl]indoline-5-carboxamide]	< 5 µM	< 5 µM
CC[C@@H](NC(=O)c1ccc2c(c1)/C(=C/c1[nH]c(C)c(C(=O)N3CCC[C@@H]3CN3CCCC3)c1C)C(=O)N2)c1ccccc1 [Compound 48, (3Z)-3-[(3,5-dimethyl-4-{[(2R)-2-(pyrrolidin-1-ylmethyl)pyrrolidin-1-yl]carbonyl}-1H-pyrrol-2-yl)methylene]-2-oxo-N-[(1R)-1-phenylpropyl]indoline-5-carboxamide]	< 5 µM	< 5 µM
